In PubChem BioAssay AID1963846 (Molecular Pharmacology Branch, DTP, NCI, 2024):

System: 454973-116-R2-J3-PDC complex spheroid viability
Assay: Anticancer human tumor 454973-116-R2-J3-PDC patient-derived pancreatic carcinoma cell line growth inhibition [POLQ]
Settings: for IC50: curve of first compound; for viability, T/C: stronger effect = lower value
Summary of the method: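 Three-cell-type spheroids modelling solid tumor plus stroma served as the readout system; POL inhibitors were tested individually and in combination, concentration ranges set by clinical Cmax where known.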

[1] = second compound 0.0316 µM, first compound 0.0316 µM
[2] = second compound 0.0316 µM, first compound 0.1 µM
[3] = second compound 0.0316 µM, first compound 0.316 µM
[4] = second compound 0.0316 µM, first compound 1 µM
[5] = second compound 0.0316 µM, first compound 3.16 µM
[6] = second compound 0.0316 µM, first compound 10 µM
[7] = second compound 0.1 µM, first compound 0.0316 µM
[8] = second compound 0.1 µM, first compound 0.1 µM
[9] = second compound 0.1 µM, first compound 0.316 µM
[10] = second compound 0.1 µM, first compound 1 µM
[11] = second compound 0.1 µM, first compound 3.16 µM
[12] = second compound 0.1 µM, first compound 10 µM
[13] = second compound 0.316 µM, first compound 0.0316 µM
[14] = second compound 0.316 µM, first compound 0.1 µM
[15] = second compound 0.316 µM, first compound 0.316 µM
[16] = second compound 0.316 µM, first compound 1 µM
[17] = second compound 0.316 µM, first compound 3.16 µM
[18] = second compound 0.316 µM, first compound 10 µM
[19] = second compound 1 µM, first compound 0.0316 µM
[20] = second compound 1 µM, first compound 0.1 µM
[21] = second compound 1 µM, first compound 0.316 µM
[22] = second compound 1 µM, first compound 1 µM
[23] = second compound 1 µM, first compound 3.16 µM
[24] = second compound 1 µM, first compound 10 µM
[25] = second compound 3.16 µM, first compound 0.0316 µM
[26] = second compound 3.16 µM, first compound 0.1 µM
[27] = second compound 3.16 µM, first compound 0.316 µM
[28] = second compound 3.16 µM, first compound 1 µM
[29] = second compound 3.16 µM, first compound 3.16 µM
[30] = second compound 3.16 µM, first compound 10 µM
[31] = second compound 10 µM, first compound 0.0316 µM
[32] = second compound 10 µM, first compound 0.1 µM
[33] = second compound 10 µM, first compound 0.316 µM
[34] = second compound 10 µM, first compound 1 µM
[35] = second compound 10 µM, first compound 3.16 µM
[36] = second compound 10 µM, first compound 10 µM
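Also: spheroids exposed to drugs for seven days before measurement.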
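For viability, T/C in this document: percent viability relative to DMSO vehicle control wells taken as 100%.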

O=C(Nc1ccc(O)c(NS(=O)(=O)c2ccc(F)cc2)c1)c1ccc(-c2ccccc2)cc1 + COC1C(OC(N)=O)C(O)C(Oc2ccc3c(O)c(NC(=O)c4ccc(O)c(CC=C(C)C)c4)c(=O)oc3c2C)OC1(C)C
IC50 (second compound 0.0316 µM): > 10000 nM | IC50 (second compound 0.1 µM): > 10000 nM | IC50 (second compound 0.316 µM): > 10000 nM | IC50 (second compound 1 µM): > 10000 nM | IC50 (second compound 3.16 µM): > 10000 nM | IC50 (second compound 10 µM): > 10000 nM | viability, T/C [1]: 93% | viability, T/C [2]: 107% | viability, T/C [3]: 98.8% | viability, T/C [4]: 112% | viability, T/C [5]: 112% | viability, T/C [6]: 105% | viability, T/C [7]: 101% | viability, T/C [8]: 119% | viability, T/C [9]: 103% | viability, T/C [10]: 124% | viability, T/C [11]: 106% | viability, T/C [12]: 105% | viability, T/C [13]: 101% | viability, T/C [14]: 110% | viability, T/C [15]: 112% | viability, T/C [16]: 116% | viability, T/C [17]: 113% | viability, T/C [18]: 103% | viability, T/C [19]: 109% | viability, T/C [20]: 104% | viability, T/C [21]: 108% | viability, T/C [22]: 117% | viability, T/C [23]: 109% | viability, T/C [24]: 98.4% | viability, T/C [25]: 113% | viability, T/C [26]: 115% | viability, T/C [27]: 107% | viability, T/C [28]: 106% | viability, T/C [29]: 118% | viability, T/C [30]: 94.2% | viability, T/C [31]: 108% | viability, T/C [32]: 92.1% | viability, T/C [33]: 93.4% | viability, T/C [34]: 104% | viability, T/C [35]: 102% | viability, T/C [36]: 85.6%

COc1cc(C2c3cc4c(cc3C(OC3OC5COC(C)OC5C(O)C3O)C3COC(=O)C23)OCO4)cc(OC)c1O (stereo unspecified) + Cc1cccc(N(C)C(=O)C2C(O)CCN2c2nc(C)cc(C(F)(F)F)c2C#N)c1
IC50 (second compound 0.0316 µM): 1500 nM | IC50 (second compound 0.1 µM): 1520 nM | IC50 (second compound 0.316 µM): 1360 nM | IC50 (second compound 1 µM): 1300 nM | IC50 (second compound 3.16 µM): 1070 nM | IC50 (second compound 10 µM): 886 nM | viability, T/C [1]: 97.9% | viability, T/C [2]: 108% | viability, T/C [3]: 87.6% | viability, T/C [4]: 66.1% | viability, T/C [5]: 23.4% | viability, T/C [6]: 10.1% | viability, T/C [7]: 102% | viability, T/C [8]: 99.5% | viability, T/C [9]: 89.6% | viability, T/C [10]: 65.8% | viability, T/C [11]: 24% | viability, T/C [12]: 11.7% | viability, T/C [13]: 101% | viability, T/C [14]: 102% | viability, T/C [15]: 87.7% | viability, T/C [16]: 61.5% | viability, T/C [17]: 21.8% | viability, T/C [18]: 9.93% | viability, T/C [19]: 111% | viability, T/C [20]: 104% | viability, T/C [21]: 88.3% | viability, T/C [22]: 60.6% | viability, T/C [23]: 21.1% | viability, T/C [24]: 11.1% | viability, T/C [25]: 106% | viability, T/C [26]: 92.9% | viability, T/C [27]: 82.1% | viability, T/C [28]: 52.5% | viability, T/C [29]: 23.1% | viability, T/C [30]: 13.2% | viability, T/C [31]: 111% | viability, T/C [32]: 105% | viability, T/C [33]: 78.5% | viability, T/C [34]: 47% | viability, T/C [35]: 21.7% | viability, T/C [36]: 10.5%

Cn1ncnc1[C@H]1c2n[nH]c(=O)c3cc(F)cc(c23)N[C@@H]1c1ccc(F)cc1 + Cc1cccc(N(C)C(=O)C2C(O)CCN2c2nc(C)cc(C(F)(F)F)c2C#N)c1
IC50 (second compound 0.0316 µM): > 100 nM | IC50 (second compound 0.1 µM): > 100 nM | IC50 (second compound 0.316 µM): > 100 nM | IC50 (second compound 1 µM): > 100 nM | IC50 (second compound 3.16 µM): > 100 nM | IC50 (second compound 10 µM): > 100 nM | viability, T/C (second compound 0.0316 µM, first compound 0.000316 µM): 109% | viability, T/C (second compound 0.0316 µM, first compound 0.001 µM): 97% | viability, T/C (second compound 0.0316 µM, first compound 0.00316 µM): 91.8% | viability, T/C (second compound 0.0316 µM, first compound 0.01 µM): 96.1% | viability, T/C [1]: 108% | viability, T/C [2]: 89.6% | viability, T/C (second compound 0.1 µM, first compound 0.000316 µM): 106% | viability, T/C (second compound 0.1 µM, first compound 0.001 µM): 100% | viability, T/C (second compound 0.1 µM, first compound 0.00316 µM): 95.6% | viability, T/C (second compound 0.1 µM, first compound 0.01 µM): 97.2% | viability, T/C [7]: 94.3% | viability, T/C [8]: 90.1% | viability, T/C (second compound 0.316 µM, first compound 0.000316 µM): 102% | viability, T/C (second compound 0.316 µM, first compound 0.001 µM): 104% | viability, T/C (second compound 0.316 µM, first compound 0.00316 µM): 98.5% | viability, T/C (second compound 0.316 µM, first compound 0.01 µM): 97.6% | viability, T/C [13]: 98.5% | viability, T/C [14]: 85.2% | viability, T/C (second compound 1 µM, first compound 0.000316 µM): 110% | viability, T/C (second compound 1 µM, first compound 0.001 µM): 102% | viability, T/C (second compound 1 µM, first compound 0.00316 µM): 103% | viability, T/C (second compound 1 µM, first compound 0.01 µM): 105% | viability, T/C [19]: 91.7% | viability, T/C [20]: 91.4% | viability, T/C (second compound 3.16 µM, first compound 0.000316 µM): 105% | viability, T/C (second compound 3.16 µM, first compound 0.001 µM): 119% | viability, T/C (second compound 3.16 µM, first compound 0.00316 µM): 103% | viability, T/C (second compound 3.16 µM, first compound 0.01 µM): 108% | viability, T/C [25]: 97.2% | viability, T/C [26]: 85.6% | viability, T/C (second compound 10 µM, first compound 0.000316 µM): 107% | viability, T/C (second compound 10 µM, first compound 0.001 µM): 96% | viability, T/C (second compound 10 µM, first compound 0.00316 µM): 97.5% | viability, T/C (second compound 10 µM, first compound 0.01 µM): 91.8% | viability, T/C [31]: 101% | viability, T/C [32]: 85%
